Data as given in patent publication US20120238488A1, “COMPOUNDS AND METHODS FOR TREATING NEOPLASIA” (priority 2009, published 2012).
Like-named read-outs stand apart in the source and are kept apart here.

Assays:
[1] = tested on: DU145 (Prostate); test: SRB assay, DU145; format: cell-based, human; settings: for TGI / GI50: DU145, SRB, 48 h; for CC50 / GI50: Homo sapiens; for CC50: DU-145, 48 h, read-out: LC50; for GI50: DU-145
Description: (§1) SRB assays were performed according to standard National Cancer Institute Guidelines. Briefly, human tumor cells from different cancer panels were seeded into 96 well plates in 100 μL (plating densities ranging from 5-40,000 cells/well depending on the doubling time of individual cell lines) in serum-containing media for twenty-four hours prior to the addition of the compounds to be assayed. After 24 hours, one plate of each cell line was fixed in situ with trichloroacetic acid (TCA). The fixed slides were used to determine the cell population for each cell line at the time of drug addition (Tz). Each compound to be tested was solubilized in DMSO and the desired concentration was then added to the medium and diluted serially 1:10 to provide a total of five or ten drug concentrations plus control (in a final volume of 200 μL). The starting dose before any dilution was 100 uM for all compounds.
(§2) Following drug addition, each culture was incubated for forty-eight hours. The assay was terminated with the addition of cold TCA. The supernatant was discarded, and the plates were washed with tap water and air dried. Sulforhodamine B (SRB) solution was then added to each well. After staining, the bound stain was solubilized and the absorbance was read on an automated plate reader at a wavelength of 515 nm.
(§3) Using the absorbance measurements [time zero, (Tz), control growth, (C), and test growth in the presence of drug at the ten concentration levels (Ti)], the percentage growth was calculated at each of the drug concentrations levels. Percentage growth inhibition was calculated as:
(§4) [(Ti−Tz)/(C−Tz)]×100 for concentrations for which Ti>/=Tz
(§5) [(Ti−Tz)/Tz]×100 for concentrations for which Ti<Tz.
(§6) Three dose response parameters were calculated for each experimental agent. Growth inhibition of 50% (GI50) was calculated from [(Ti−Tz)/(C−Tz)]×100=50, which was the drug concentration resulting in a 50% reduction in the net protein increase (as measured by SRB staining) in control cells during the drug. The drug concentration resulting in total growth inhibition (TGI) was calculated from Ti=Tz. The LC50 (concentration of drug resulting in a 50% reduction in the measured protein at the end of the drug treatment as compared to that at the beginning) indicating a net loss of cells following treatment was calculated from [(Ti−Tz)/Tz]×100=−50.
(§7) Values were calculated for each of these three parameters when the level of activity was reached; however, if the effect was not reached or was exceeded, the value for that parameter was expressed as greater or less than the maximum or minimum concentration tested.
(§8) Table 4 summarizes results characterizing the effects of compound Nos. 120, 12, 61, 1, and 56 on GI50, which measures the cell growth inhibitory power of the compound, TGI, which measures cytostatic effect (TGI) and LC50, which signifies cytotoxic effect. Each of these parameters in Table 4 was calculated in a sulforhodamine B (SRB) assay, which provides a colorimetric measure of a compound's anti-cancer activity. SRB assays were performed with compounds of the invention in 22 different cell lines (shaded in light gray in Table 4), which represent nine different tumor panels (lung, melanoma, ovary, prostate, CNS, breast, pancreas colon and renal). Ouabain and digoxin were used as controls. Paclitaxel was added as a non-Na^+K^+-ATPase inhibitor control.

[2] = tested on: MB435 (Melanoma); test: SRB assay, MB435; format: cell-based, human; settings: 48 h; for CC50 / GI50: Homo sapiens; for CC50: read-out: LC50; for GI50 / TGI: MB435, SRB
Description: as §1, §2, §3, §4, §5, §6, §7, §8

[3] = tested on: Na+/K+-ATPase (Adenosine 5′-Triphosphatase isolated from porcine cerebral cortex); test: Na+/K+-ATPase inhibitory activity, colorimetric Adenosine 5'-Triphosphatase Enzymatic Assay; format: biochemical
Description: The inhibitory effect of a compound of the invention on ATPase activity was assessed in vitro using the colorimetric Adenosine 5′-Triphosphatase Enzymatic Assay of Sigma (St. Louis, Mo.) according to the manufacturer's instructions. This assay utilizes Adenosine 5′-Triphosphatase isolated from porcine cerebral cortex. Each reaction was performed in a final volume of 250 μl using 0.5 units/ml enzyme in the presence of different inhibitors. […] IC50 values were determined using the Origin® program software (OriginLab, Northampton, Mass.).

[4] = tested on: ADRRES (Ovary); test: SRB assay, ADRRES (multidrug resistant NCI-ADR-RES); format: cell-based, human; settings: for TGI / GI50: ADRRES; for TGI / GI50 / anti-tumor action in multidrug resistant cell line NCI-ADR-RES: SRB; for TGI / CC50 / GI50: 48 h; for CC50 / GI50: Homo sapiens, NCI/ADR-RES; for CC50: read-out: LC50; for anti-tumor action in multidrug resistant cell line NCI-ADR-RES: cells express high levels of MDR1 and P-glycoprotein
Description: NCI-ADR-RES cells have been classified as ovarian cancer cells by the National Cancer Institute.
as §1, §2, §3, §4, §5, §6, §7, §8
Table 4 also presents results with Compound Nos. 120, 12, 61, 1, and 56 in a well characterized drug resistant cell line, NCI-ADR-RES, that expresses high levels of MDR1 and P-glycoprotein.

[5] = tested on: SKMEL28 (Melanoma); test: SRB assay, SKMEL28; format: cell-based, human; settings: for CC50 / GI50: Homo sapiens; for CC50: SK-MEL-28, 48 h, read-out: LC50; for GI50: SK-MEL-28; for GI50 / TGI: SKMEL28, SRB, 48 h
Description: as §1, §2, §3, §4, §5, §6, §7, §8

[6] = tested on: ERVK (Lung); test: SRB assay, ERVK; format: cell-based, human; settings: 48 h; for TGI / GI50: ERVK, SRB; for CC50 / GI50: Homo sapiens; for CC50: read-out: LC50
Description: as §1, §2, §3, §4, §5, §6, §7, §8

[7] = tested on: SF268 (CNS); test: SRB assay, SF268; format: cell-based; settings: Homo sapiens; for CC50: SF-268, 48 h, read-out: LC50; for GI50 / IC (TGI): SF-268, SF268, SRB, 48 h; for GI50: read-out: GI50; for IC (TGI): read-out: TGI
In short: (§9)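 Here GI50 marks halving of net protein increase, TGI the dose where final equals time-zero protein, and LC50 a 50% protein fall from baseline.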

[8] = tested on: A549 (Lung); test: SRB assay, A549; format: cell-based, human; settings: for TGI / GI50: A549, SRB, 48 h; for CC50 / GI50: Homo sapiens; for CC50: A549, 48 h, read-out: LC50
Description: as §1, §2, §3, §4, §5, §6, §7, §8

[9] = tested on: OVCAR3 (Ovary); test: SRB assay, OVCAR3; format: cell-based, human; settings: for CC50 / GI50: Homo sapiens; for CC50: OVCAR-3, 48 h, read-out: LC50; for GI50: OVCAR-3; for GI50 / TGI: OVCAR3, SRB, 48 h
Description: as §1, §2, §3, §4, §5, §6, §7, §8

[10] = tested on: PCJ (Prostate); test: SRB assay, PCJ; format: cell-based; settings: Homo sapiens, 48 h; for CC50: read-out: LC50; for GI50 / IC (TGI): PCJ, SRB
In short: as §9

[11] = tested on: CAKJ1 (Renal); test: SRB assay, CAKJ1; format: cell-based, human; settings: 48 h; for TGI / GI50: CAKJ1, SRB; for CC50 / GI50: Homo sapiens; for CC50: read-out: LC50
Description: as §1, §2, §3, §4, §5, §6, §7, §8

[12] = tested on: OVCAR5 (Ovary); test: SRB assay, OVCAR5; format: cell-based, human; settings: for CC50 / GI50: Homo sapiens; for CC50: OVCAR-5, 48 h, read-out: LC50; for GI50: OVCAR-5; for GI50 / TGI: OVCAR5, SRB, 48 h
Description: as §1, §2, §3, §4, §5, §6, §7, §8

[13] = tested on: HCT116 (Colon); test: SRB assay, HCT116; format: cell-based; settings: Homo sapiens; for CC50: HCT-116, 48 h, read-out: LC50; for GI50 / IC (TGI): HCT-116, HCT116, SRB, 48 h
In short: as §9

| Compound | TGI [1] [nM] | CC50 [1] [nM] | GI50 [1] [nM] | CC50 [2] [nM] | GI50 [2] [nM] | TGI [2] [nM] | Na+K+ ATPase inhibitory activity (in words) [3] | TGI [4] [nM] | CC50 [4] [nM] | GI50 [4] [nM] | anti-tumor action in multidrug resistant cell line NCI-ADR-RES [4] | CC50 [5] [nM] | GI50 [5] [nM] | TGI [5] [nM] | TGI [6] [nM] | CC50 [6] [nM] | GI50 [6] [nM] | CC50 [7] [nM] | GI50 [7] [nM] | IC (TGI) [7] [nM] | further results |
| --- | --- | --- | --- | --- | --- | --- | --- | --- | --- | --- | --- | --- | --- | --- | --- | --- | --- | --- | --- | --- | --- |
| C[C@]12CCC(=NOC3CCNC3)CC1CCC1C2CC[C@]2(C)C(=O)CCC12 (stereo partly drawn) [Compound 56, (10S,13S)-10,13-dimethyl-3-(pyrrolidin-3-yloxyimino)tetradecahydro-1H-cyclopenta[a]phenanthren-17(2H)-one] | 22 | 70.6 | 5 | 668 | 48.5 | 218.2 | very potent Na+K+ ATPase inhibitors | 49.1 | 90.8 | 9.3 | potent anti-tumor action | 3740 | 40.9 | 225.3 | 62.8 | 288 | 17.9 | 810 | 56.7 | 349 | IC50 ([3]; read-out: Na+K+ ATPase inhibitory activity IC50): 101 nM; TGI [8]: 4 nM; CC50 [8]: 8.2 nM; GI50 [8]: < 1 nM; CC50 [9]: 170 nM; GI50 [9]: 2.9 nM; TGI [9]: 11.4 nM; CC50 [10]: 936 nM; GI50 [10]: 33.2 nM; IC (TGI) [10]: 387 nM; TGI [11]: 26.5 nM; CC50 [11]: 172 nM; GI50 [11]: < 1 nM; CC50 [12]: 740 nM; GI50 [12]: 74.9 nM; TGI [12]: 341.1 nM; CC50 [13]: 762 nM; GI50 [13]: 5.8 nM; IC (TGI) [13]: 70.5 nM |
| C[C@]12CCC(=NOC3CCNC3)C=C1CCC1C2CC[C@]2(C)C(=O)CCC12 (stereo partly drawn) [Compound 61, (10R,13S)-10,13-dimethyl-3-(pyrrolidin-3-yloxyimino)-2,3,7,8,9,10,11,12,13,14,15,16-dodecahydro-1H-cyclopenta[a]phenanthren-17(6H)-one] | 626.2 | 895 | 357 | 8200 | 649 | 3378.4 | strong Na+K+ ATPase inhibitory activities | 1015.6 | 6070 | 564 | potent anti-tumor action | 12300 | 993 | 6623 | 2471 | 6840 | 493 | 8030 | 567 | 3020 | IC50 ([3]; 0.5 units/ml enzyme, five concentrations 10^−5 to 10^−9M, read-out: Na+ K+ Inhibitory Activity (IC50)): 496 nM; TGI [8]: 514.9 nM; CC50 [8]: 823 nM; GI50 [8]: 207 nM; CC50 [9]: 6120 nM; GI50 [9]: 355 nM; TGI [9]: 800.4 nM; CC50 [10]: 7420 nM; GI50 [10]: 281 nM; IC (TGI) [10]: 1810 nM; TGI [11]: 1251.6 nM; CC50 [11]: 6650 nM; GI50 [11]: 268 nM; CC50 [12]: 9060 nM; GI50 [12]: 3850 nM; TGI [12]: 6454.9 nM; CC50 [13]: 9260 nM; GI50 [13]: 286 nM; IC (TGI) [13]: 1310 nM |
